For the data set the following is noted: Crystal; visual observation.

± gives the expanded uncertainty stated by the source.

As to `F[P-](F)(F)(F)(F)F.F[P-](F)(F)(F)(F)F.c1cc[n+](CC[n+]2ccccc2)cc1` [1,1'-(ethane-1,2-diyl)bis(pyridin-1-ium) hexafluorophosphate], the Normal melting temperature turned out to be 220.20 ± 1.4 °C.

These data come from the NIST ThermoML archive (doi:10.1021/je900524t).
